Data published in patent US7378232B2 (priority 2002, dated 2008).

test system: yeast cells expressing / not expressing the P protein (strain SH3866); test: not given; format: cell-based; details: not given

Q: [Sb] [ANTIMONY, antimony] was tested. Which “yeast colony size, P protein-expressing vs non-expressing colonies exposed to the compound” value did it give?
A: The value was “do not reach the same size”.

same assay, conditions: 24-well selective medium-agar, 30° C. for 3 days, FIG. 3A

Q: arsenate was tested. Which “yeast colony size, P protein-expressing vs non-expressing colonies exposed to the compound” value did it give?
A: The value was “do not reach the same size”.

Q: For arsenic trioxide, which “yeast colony size, P protein-expressing vs non-expressing colonies exposed to the compound” value is on record?
A: Its value is “do not reach the same size”.

test system: yeast cells not expressing the P protein; test: Nigericin effect on yeast cell viability, cells without P protein; format: cell-based; details: Saccharomyces cerevisiae, data not shown

Q: How did the IC50 turn out when CO[C@@H]1C[C@@H](C[C@H]2CC[C@H](C)[C@H]([C@@H](C)C(=O)O)O2)O[C@]2(O[C@](C)([C@H]3CC[C@@](C)([C@@H]4O[C@@H]([C@H]5O[C@@](O)(CO)[C@H](C)C[C@@H]5C)C[C@@H]4C)O3)C[C@H]2C)[C@@H]1C [nigericin] was run?
A: Its IC50 is 25 µM.

test system: wild-type melan-a melanocytes (A) and P-null melanocytes (P); test: not given; format: cell-based; details: not given

Q: How did the “TOXIN S[…] CHANGE (as a function of P protein expression)” value turn out when C=CCC(N)C(=O)O (stereo not shown) [ALLYLGLYCINE, allylglycine] was run?
A: The value was “✓”.

Q: With C[C@@H]1[C@H](O)[C@@H](C)/C=C/C=C/C=C/C=C/C=C/C=C/C=C/[C@H](O[C@@H]2O[C@H](C)[C@@H](O)[C@H](N)[C@@H]2O)C[C@@H]2O[C@](O)(C[C@@H](O)C[C@@H](O)[C@H](O)CC[C@@H](O)C[C@@H](O)CC(=O)O[C@H]1C)C[C@H](O)[C@H]2C(=O)O [AMPHOTERICIN, amphotericin] as the compound, how does the “TOXIN S[…] CHANGE (as a function of P protein expression)” value read?
A: The value was “✓”.

Q: How did the “TOXIN S[…] (as a function of P protein expression)” value turn out when [Sb] [ANTIMONY, antimony] was run?
A: The value was “✓”.

Q: For CO/C1=C\C(C)=C\[C@@H](C)[C@@H](O)[C@@H](C)C/C(C)=C/C=C/[C@H](OC)[C@@H]([C@@H](C)[C@@H](O)[C@H](C)[C@@]2(O)C[C@@H](O)[C@H](C)[C@@H](C(C)C)O2)OC1=O [BAFILOMYCIN Al, bafilomycin A1], which “TOXIN S[…] (as a function of P protein expression)” value is on record?
A: Its value is “✓”.

Q: How did the “TOXIN S[…] (as a function of P protein expression)” value turn out when CCCCS(=N)(=O)CCC(N)C(=O)O (stereo not shown) [BUTHIONINE SULFOXIMINE (BSO), buthionine sulfoximine] was run?
A: The value was “✓”.

Q: With [Cd] [CADMIUM, cadmium] as the compound, how does the “TOXIN S[…] (as a function of P protein expression)” value read?
A: The value was “✓”.

Q: How did the “TOXIN S[…] (as a function of P protein expression)” value turn out when CCN(CC)CCCC(C)Nc1ccnc2cc(Cl)ccc12 (stereo not shown) [CHLOROQUINE, chloroquine] was run?
A: Its value is “✓”.

Q: With N.N.[Cl][Pt][Cl] [CISPLATIN, cisplatin] as the compound, how does the “TOXIN S[…] (as a function of P protein expression)” value read?
A: The value was “✓”.

Q: C[C@@H]1C[C@@H]([C@H](O)CC2CC(=O)NC(=O)C2)C(=O)[C@@H](C)C1 [CYCLOHEXIMIDE, cycloheximide] was tested. Which “TOXIN S[…] (as a function of P protein expression)” value did it give?
A: Its value is “✓”.

Q: For COc1cccc2c1C(=O)c1c(O)c3c(c(O)c1C2=O)C[C@@](O)(C(=O)CO)C[C@@H]3O[C@H]1C[C@H](N)[C@H](O)[C@H](C)O1 [DOXORUBICIN, doxorubicin], which “TOXIN S[…] (as a function of P protein expression)” value is on record?
A: Its value is “✓”.

Q: How did the “TOXIN S[…] (as a function of P protein expression)” value turn out when C=C(CC)C(=O)c1ccc(OCC(=O)O)c(Cl)c1Cl [ETHACRYNIC ACID, ethacrynic acid] was run?
A: The value was “✓”.

Q: Which “TOXIN S[…] (as a function of P protein expression)” value does the source give for N#CC(C#N)=NNc1ccc(OC(F)(F)F)cc1 [FCCP, carbonyl cyanide p-trifluoromethoxyphenylhydrazone] here?
A: The value was “✓”.

Q: With O=S(=O)([O-])[O-].[Fe+2] [IRON SULFATE (FESO4), iron sulfate (FeSO4)] as the compound, how does the “TOXIN S[…] (as a function of P protein expression)” value read?
A: The value was “✓”.

Q: How did the “TOXIN S[…] (as a function of P protein expression)” value turn out when CC[C@H]1/C=C/C=C/C[C@@H](C)[C@H](O)[C@@](C)(O)C(=O)[C@@H](C)[C@H](O)[C@@H](C)C(=O)[C@@H](C)[C@H](O)[C@@H](C)/C=C/C(=O)O[C@@H]2[C@H](C)[C@H](CC1)O[C@]1(CC[C@H](C)[C@H](C[C@@H](C)O)O1)[C@H]2C [OLIGOMYCIN, oligomycin] was run?
A: Its value is “✓”.

Q: With COc1cc(NC(C)CCCN)c2ncccc2c1 (stereo not shown) [PRIMAQUINE, primaquine] as the compound, how does the “TOXIN S[…] CHANGE (as a function of P protein expression)” value read?
A: The value was “✓”.

Q: Which “TOXIN S[…] (as a function of P protein expression)” value does the source give for O=[Se](=O)(O)O [SELENATE, selenate] here?
A: Its value is “✓”.

Q: For CC(C)[C@@H]1NC(=O)[C@H](C)OC(=O)[C@@H](C(C)C)NC(=O)[C@@H](C(C)C)OC(=O)[C@H](C(C)C)NC(=O)[C@H](C)OC(=O)[C@@H](C(C)C)NC(=O)[C@@H](C(C)C)OC(=O)[C@H](C(C)C)NC(=O)[C@H](C)OC(=O)[C@@H](C(C)C)NC(=O)[C@@H](C(C)C)OC1=O [VALINOMYCIN, valinomycin], which “TOXIN S[…] (as a function of P protein expression)” value is on record?
A: Its value is “✓”.

Q: With CC[C@]1(O)C[C@@H]2CN(CCc3c([nH]c4ccccc34)[C@@](C(=O)OC)(c3cc4c(cc3OC)N(C)[C@H]3[C@@](O)(C(=O)OC)[C@H](OC(C)=O)[C@]5(CC)C=CCN6CC[C@]43[C@@H]65)C2)C1 [VINBLASTINE, vinblastine] as the compound, how does the “TOXIN S[…] (as a function of P protein expression)” value read?
A: The value was “✓”.

Q: How did the “TOXIN S[…] (as a function of P protein expression)” value turn out when arsenate was run?
A: Its value is “✓”.

Q: How did the “TOXIN S[…] (as a function of P protein expression)” value turn out when arsenic trioxide was run?
A: The value was “✓”.

Q: arsenite was tested. Which “TOXIN S[…] (as a function of P protein expression)” value did it give?
A: The value was “✓”.

test system: P protein-expressing yeast cells and control yeast cells; test: Selenite exposure of yeast: colony size and red precipitate formation; format: cell-based; details: 10-50 mM selenite in agar, 30° C. for 3 days, FIG. 3B
Procedure: In another experiment, P protein-expressing yeast cells and control yeast cells were exposed to various concentrations of selenite. The toxic affect of selenite in yeast is believed to be due to DNA damage. The major mode of selenite detoxification appears to be its reduction by glutathione to elementary selenium that accumulates as a red precipitate in the cell vacuole (Pinson et al. Molecular Microbiology 36:679-687(2000)).
10 mM, 20 mM, 30 mM, 40 mM, and 50 mM selenite solutions were prepared in 55° C. selective medium-agar and plated in duplicate into 24-well plates. Actively growing yeast cultures were diluted to A600 values of 0.001, and then 10 μl aliquots were spotted in duplicate onto the selenite-containing agar medium. Plates were incubated at 30° C. for 3 days. […]

Q: Which “red precipitate accumulation in P-expressing cells vs control cells” value does the source give for O=[Se](O)O [selenite] here?
A: The value was “accumulate more red precipitate”.

Q: And the “selenite sensitivity, cells expressing a P protein versus control cells” value?
A: The value was “no difference”.

test system: yeast cells expressing the P protein; test: Nigericin effect on yeast cell viability, P protein-expressing cells; format: cell-based; details: Saccharomyces cerevisiae, data not shown

Q: With CO[C@@H]1C[C@@H](C[C@H]2CC[C@H](C)[C@H]([C@@H](C)C(=O)O)O2)O[C@]2(O[C@](C)([C@H]3CC[C@@](C)([C@@H]4O[C@@H]([C@H]5O[C@@](O)(CO)[C@H](C)C[C@@H]5C)C[C@@H]4C)O3)C[C@H]2C)[C@@H]1C [nigericin] as the compound, how does the IC50 read?
A: Its IC50 is 3 µM.
